Active and inactive are the calls of the source. How the calls were made is not given here.
biological target: Tyrosine-protein kinase ABL1 (Homo sapiens) + Ras and Rab interactor 1 (Homo sapiens) (UniProt P00519+Q13671); assay: concentration response for Abl-Rin1 disruption – biochemical, TR-FRET, dose response, late-stage follow-up (AID 602398); conditions: TR-FRET Rin1-Abl binding
Sequence (P00519 whole entry, looked up): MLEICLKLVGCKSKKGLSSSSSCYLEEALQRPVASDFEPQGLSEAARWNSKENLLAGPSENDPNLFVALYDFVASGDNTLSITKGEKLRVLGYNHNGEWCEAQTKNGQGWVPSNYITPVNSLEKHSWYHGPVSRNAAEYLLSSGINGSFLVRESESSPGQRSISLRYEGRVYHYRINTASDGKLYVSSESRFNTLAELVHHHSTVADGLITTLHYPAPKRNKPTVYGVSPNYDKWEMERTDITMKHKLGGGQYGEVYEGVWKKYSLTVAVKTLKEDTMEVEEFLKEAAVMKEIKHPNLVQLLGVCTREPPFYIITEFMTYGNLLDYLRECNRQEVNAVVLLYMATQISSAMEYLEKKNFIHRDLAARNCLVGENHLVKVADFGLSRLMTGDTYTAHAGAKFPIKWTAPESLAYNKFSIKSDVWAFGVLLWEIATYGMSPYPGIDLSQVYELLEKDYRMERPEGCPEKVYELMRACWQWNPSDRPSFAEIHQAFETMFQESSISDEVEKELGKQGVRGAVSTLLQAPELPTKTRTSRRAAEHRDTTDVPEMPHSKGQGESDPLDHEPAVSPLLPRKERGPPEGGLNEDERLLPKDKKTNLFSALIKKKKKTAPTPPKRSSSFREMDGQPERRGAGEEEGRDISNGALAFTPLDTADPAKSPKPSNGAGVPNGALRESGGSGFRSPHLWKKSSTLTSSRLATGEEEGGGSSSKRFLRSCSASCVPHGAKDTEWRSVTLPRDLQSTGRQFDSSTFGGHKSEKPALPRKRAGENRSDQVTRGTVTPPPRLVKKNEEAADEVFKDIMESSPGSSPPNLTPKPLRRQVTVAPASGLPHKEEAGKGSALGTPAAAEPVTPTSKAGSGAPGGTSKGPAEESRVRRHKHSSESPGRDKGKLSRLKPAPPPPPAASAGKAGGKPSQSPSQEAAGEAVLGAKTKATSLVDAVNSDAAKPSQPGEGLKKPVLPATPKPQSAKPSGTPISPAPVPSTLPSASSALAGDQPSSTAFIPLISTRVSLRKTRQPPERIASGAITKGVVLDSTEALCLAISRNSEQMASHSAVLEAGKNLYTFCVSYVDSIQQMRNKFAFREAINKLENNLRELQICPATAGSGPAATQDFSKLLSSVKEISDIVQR
Sequence (Q13671 whole entry, looked up): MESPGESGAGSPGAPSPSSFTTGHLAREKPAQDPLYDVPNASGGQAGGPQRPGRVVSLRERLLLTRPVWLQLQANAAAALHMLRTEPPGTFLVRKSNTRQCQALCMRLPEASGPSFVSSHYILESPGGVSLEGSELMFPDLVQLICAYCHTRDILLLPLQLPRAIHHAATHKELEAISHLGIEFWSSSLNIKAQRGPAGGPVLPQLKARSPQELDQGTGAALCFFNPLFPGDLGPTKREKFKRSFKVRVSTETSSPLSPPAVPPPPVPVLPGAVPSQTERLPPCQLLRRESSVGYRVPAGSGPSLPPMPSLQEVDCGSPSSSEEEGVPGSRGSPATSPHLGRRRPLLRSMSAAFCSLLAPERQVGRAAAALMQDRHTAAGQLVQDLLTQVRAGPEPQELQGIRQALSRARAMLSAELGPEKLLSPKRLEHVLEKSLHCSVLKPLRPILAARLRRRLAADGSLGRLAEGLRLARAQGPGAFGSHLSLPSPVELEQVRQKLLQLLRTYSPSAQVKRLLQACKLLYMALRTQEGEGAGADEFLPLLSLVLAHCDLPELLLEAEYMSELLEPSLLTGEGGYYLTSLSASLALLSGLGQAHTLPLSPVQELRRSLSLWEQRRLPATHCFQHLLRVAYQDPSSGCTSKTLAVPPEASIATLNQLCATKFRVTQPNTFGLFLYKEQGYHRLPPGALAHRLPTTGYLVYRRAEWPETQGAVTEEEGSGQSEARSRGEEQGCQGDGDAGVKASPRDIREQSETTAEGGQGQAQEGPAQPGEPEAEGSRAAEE

Row | SMILES | IC50
1 | O=c1cc(OCc2ccccc2)cc[nH]1 | 0.0161 µM
2 | O=C(Cc1ccc(NC(=O)C2CCN(C(=O)c3ccccc3)CC2)cc1)Nc1ccc(C(=O)N2CCOCC2)cc1 | inactive
3 | CN(CCc1ccccc1)C(=O)c1ccc(NC(=O)Cc2ccc(NC(=O)C3CCN(C(=O)c4ccccc4)CC3)cc2)cc1 | 8.52 µM
4 | COc1ccc2oc(C(=O)NCC(c3ccco3)N(C)C)c(C)c2c1 (stereo not drawn) | 5.19 µM
5 | Cc1c(C(=O)NCC(c2ccco2)N(C)C)oc2c(Cl)cccc12 (stereo not drawn) | 4.68 µM
6 | CSc1ccccc1OCc1cc(C(=O)N2CCNC(=O)C2)no1 | 5.94 µM
7 | COc1ccc(CCNc2cc(=O)[nH]c(N)n2)cc1 | 4.01 µM
8 | O=C(Cc1ccc(NC(=O)C2CCN(C(=O)C3CCCCC3)CC2)cc1)Nc1ccc(C(=O)N2CCOCC2)cc1 | inactive
9 | CCOC(=O)N1CCC(NC(=O)CCc2nc(C3=CCN(C)CC3)no2)CC1 | 9.41 µM
10 | COc1cccc(CSc2nnc(CSc3nc4nc(C)cc(C)n4n3)s2)c1 | 9.57 µM
11 | N#Cc1ccccc1Sc1ccccc1C(=O)NCC(c1ccco1)N1CCCC1 (stereo not drawn) | 4.08 µM
12 | CN(Cc1c(F)cccc1Cl)C(=O)CNC(=O)c1ccc2c(c1)OCO2 | 3.77 µM
13 | CN(CCc1ccccc1)C(=O)c1ccc(NC(=O)Cc2ccc(NC(=O)C3CCN(C(=O)C4CCCC4)CC3)cc2)cc1 | 5.22 µM
14 | CC(=O)Nc1ccc(NC(=O)C2CCN(C(=O)c3cccs3)CC2)cc1 | 2.17 µM
15 | O=C(Cc1ccc(NC(=O)C2CCN(C(=O)C3CCCC3)CC2)cc1)Nc1ccc(C(=O)N2CCOCC2)cc1 | 4.37 µM
16 | CCOC(=O)N1CCN(C(=O)Nc2ccc(NC(=O)N3CCN(C(=O)OCC)CC3)cc2)CC1 | inactive
17 | Cn1c(=O)c2c(nc(-n3ccnc3)n2Cc2ccc(Cl)cc2Cl)n(C)c1=O | 4.31 µM
18 | CN(C(=O)c1ccc(NC(=O)Cc2ccc(NC(=O)C3CCN(C(=O)c4ccccc4)CC3)cc2)cc1)C1CC1 | 2.53 µM

From PubChem BioAssay AID602398 (The Scripps Research Institute Molecular Screening Center, 2012)
